Laboratory results from PubChem BioAssay (NCI).
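Test compounds were applied to cells in 96-well plates for 48 hours at 5 doses. GI50 is the concentration that inhibits growth by half. TGI is the concentration that stops growth completely.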

What was measured:
Assay in all cases: NCI anticancer screen, dose series, 48 h
UACC-62 melanoma = system: UACC-62 melanoma
HL-60(TB) leukemia = system: HL-60(TB) leukemia
SN12C renal = system: SN12C renal
HOP-18 NSCLC = system: HOP-18 NSCLC
DLD-1 colon = system: DLD-1 colon
HOP-92 NSCLC = system: HOP-92 NSCLC
M19-MEL melanoma = system: M19-MEL melanoma
ACHN renal = system: ACHN renal
HOP-62 NSCLC = system: HOP-62 NSCLC
SF-539 CNS = system: SF-539 CNS
DMS 114 small cell lung = system: DMS 114 small cell lung
DMS 273 small cell lung = system: DMS 273 small cell lung
LXFL 529 NSCLC = system: LXFL 529 NSCLC
KM20L2 colon = system: KM20L2 colon

| Structure (SMILES) | TGI (UACC-62 melanoma) [µM] | TGI (HL-60(TB) leukemia) [µM] | TGI (SN12C renal) [µM] | TGI (HOP-18 NSCLC) [µM] | TGI (DLD-1 colon) [µM] | TGI (HOP-92 NSCLC) [µM] | TGI (M19-MEL melanoma) [µM] | TGI (ACHN renal) [µM] | TGI (HOP-62 NSCLC) [µM] | TGI (SF-539 CNS) [µM] | TGI (DMS 114 small cell lung) [µM] | TGI (DMS 273 small cell lung) [µM] | TGI (LXFL 529 NSCLC) [µM] | TGI (KM20L2 colon) [µM] | GI50 (HOP-92 NSCLC) [µM] |
| --- | --- | --- | --- | --- | --- | --- | --- | --- | --- | --- | --- | --- | --- | --- | --- |
| COc1ccc(C2S/C(=C\c3ccc([N+](=O)[O-])cc3)C(=O)N2NC(=O)Cc2ccccc2)cc1 (stereo unspecified) | > 100 | > 100 | > 100 | > 100 | > 100 | > 100 | > 100 | > 100 | > 100 | > 100 | > 100 | > 100 | > 100 |  |  |
| CCOC(=O)/C=C(/C(=O)OCC)n1cc(C)c(=O)[nH]c1=O | 15.8 | 3.91 | 12.3 |  |  | 3.72 |  | 7.51 | 33.2 | 27.3 |  |  |  |  |  |
| COc1ccc(/C=N/NC(=O)CSc2nc(-c3ccccc3)c(-c3ccccc3)[nH]2)cc1OC | 40.5 | 42.3 | 94.4 |  | > 100 | 84.6 | 35.3 | 77.2 | 72.5 | 45.6 | > 100 | 40.7 | 55.1 | 41.6 |  |
| Cc1[nH]c2[nH]c(=S)nc(NC(N)=S)c2c1Cc1ccccc1 | > 100 | 57.4 | > 100 |  |  | > 100 |  | > 100 | > 100 | > 100 |  |  |  |  |  |
| O=C(O)c1ccc(C2=Nc3cccc4cccc(c34)N2)cc1 | > 100 | > 100 | > 100 |  |  | > 100 |  | > 100 | > 100 | > 100 |  |  |  |  |  |
| COc1ccc(N2C(=O)C3c4[nH]c5ccc(OC)cc5c4C4CCC(c5ccccc5)CC4C3C2=O)cc1 (stereo unspecified) | 36.4 | 66 | 27.9 |  |  | 35.9 |  | 34 | 20.8 | 13.9 |  |  |  |  |  |
| NC(=S)NN=C1Cc2ccccc2C1 | > 100 | > 100 | > 100 |  |  | > 100 |  | > 100 | > 100 | > 100 |  |  |  |  |  |
| COc1ccccc1CC1(O)OC(=O)c2ccccc21 (stereo unspecified) | > 100 | > 100 | > 100 |  |  | > 100 |  | > 100 | > 100 | > 100 |  |  |  |  |  |
| CN1CCN(c2ccc3nc(-c4ccc5nc(CCCc6ccc(N(CCCl)CCCl)cc6)[nH]c5c4)[nH]c3c2)CC1 | > 100 | > 100 | > 100 |  |  | > 100 |  | > 100 | > 100 | > 100 |  |  |  |  |  |
| c1cc2nnc1SCCSCCCSCCS2 | > 100 | > 100 | > 100 |  |  | > 100 |  | > 100 | > 100 | 58.2 |  |  |  |  |  |
| O=S(=O)(N1CCCCN(S(=O)(=O)C(F)(F)F)CCCN(S(=O)(=O)C(F)(F)F)CCCCN(S(=O)(=O)C(F)(F)F)CCCN(S(=O)(=O)C(F)(F)F)CCCCN(S(=O)(=O)C(F)(F)F)CCCN(S(=O)(=O)C(F)(F)F)CCCCN(S(=O)(=O)C(F)(F)F)CCC1)C(F)(F)F | > 31.6 | > 31.6 | > 31.6 |  |  | > 31.6 |  | > 31.6 | > 31.6 | > 31.6 |  |  |  |  |  |
| Cc1ccc(C2SCc3nc4ccccc4n32)cc1 (stereo unspecified) | 21.3 | 5.94 | 38.6 |  |  | 70 |  | > 100 | 23.7 | 5.47 |  |  |  |  |  |
| CC(=S)NC=C(C(N)=O)C(N)=O | > 100 | > 100 | > 100 |  |  | > 100 |  | > 100 | > 100 | > 100 |  |  |  |  |  |
| CN(C(=O)C12C3(C(=O)O)C4C5(C(=O)O)C3C1(C(=O)O)C5C42C(=O)O)C(C)(C)C (stereo unspecified) | > 100 | > 100 | > 100 |  |  | > 100 |  | > 100 | > 100 | > 100 |  |  |  |  |  |
| N#CC(C#N)[C@@H]1CCC=C(Sc2ccccc2)[C@H]1Sc1ccccc1 | 13.9 | 18.7 | 12.5 |  |  | 13.7 |  | 6.07 | 15.6 | 4.6 |  |  |  |  |  |
| O=c1oc2ccccc2c(O)c1Cc1ccccc1Cc1c(O)c2ccccc2oc1=O | > 100 | > 100 | > 100 |  |  | > 100 |  | > 100 | > 100 | > 100 |  |  |  |  |  |
| O=C(O)C(C(F)(F)F)C(F)(F)F (tested in a mixture with another compound) | > 100 | > 100 | > 100 |  |  | > 100 |  | > 100 | > 100 | > 100 |  |  |  |  |  |
| COc1ccc(/C=C2/C(=O)N(/C=C3\C(=O)Oc4ccccc4C3=O)C(=NC(C)=O)N2C)cc1OC | > 100 | > 100 | > 100 |  |  | > 100 |  | > 100 | > 100 | > 100 |  |  |  |  | > 100 |
| O=C1NC(=O)C23C(=O)NC(=O)C12C1C=CC3CC1 (stereo unspecified) | > 10 | > 10 | > 10 |  |  | > 10 |  | > 10 | > 10 | > 10 |  |  |  |  |  |
